In the supplement of paper PMC10307832:

Legend:
Experiment in all cases: relative viability (nuclei count vs DMSO), 5 days (fraction); higher = more cells survive
[1] = compound: C1CSC2=C(C(=O)N1)SC3=C2C=C(C=C3)O [kb NB 142-70] + Cc1cc(Nc2cc(N3CCN(C)CC3)nc(Sc3ccc(NC(=O)C4CC4)cc3)n2)n[nH]1 [Tozasertib] (partner 0.1 µM)
How it was run: (§1)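 Lung cancer cell lines in 1536-well plates got either a single drug or a fixed anchor-drug dose together with five library-drug doses (not always all listed) in √10 steps, by pin tool, on the day after seeding. Nuclei were counted after 5 days, and relative viability is the treated-to-vehicle ratio of nuclei counts. Values are medians of duplicate plates.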

[2] = compound: C1CSC2=C(C(=O)N1)SC3=C2C=C(C=C3)O [kb NB 142-70] + C[C@]1(O)C[C@@H](c2nc(-c3ccc4ccc(-c5ccccc5)nc4c3)c3c(N)nccn32)C1 [Linsitinib] (partner 1 µM)
How it was run: as §1

[3] = compound: C1CSC2=C(C(=O)N1)SC3=C2C=C(C=C3)O [kb NB 142-70] + CC1(C)CCC(c2ccc(Cl)cc2)=C(CN2CCN(c3ccc(C(=O)NS(=O)(=O)c4ccc(N[C@H](CCN5CCOCC5)CSc5ccccc5)c(S(=O)(=O)C(F)(F)F)c4)cc3)CC2)C1 [Navitoclax] (partner 0.5 µM)
How it was run: as §1

[4] = compound: NCC(=O)Nc1ccc(-n2nc(C(F)(F)F)cc2-c2ccc3c(ccc4ccccc43)c2)cc1 + CS(=O)(=O)CCNCc1ccc(-c2ccc3ncnc(Nc4ccc(OCc5cccc(F)c5)c(Cl)c4)c3c2)o1 [Lapatinib] (partner 2 µM)
How it was run: as §1

[5] = compound: NCC(=O)Nc1ccc(-n2nc(C(F)(F)F)cc2-c2ccc3c(ccc4ccccc43)c2)cc1 + COc1cc2c(Oc3ccc(NC(=O)C4(C(=O)Nc5ccc(F)cc5)CC4)cc3F)ccnc2cc1OCCCN1CCOCC1 [Foretinib] (partner 0.25 µM)
How it was run: as §1

Cell Line: UMC-11
- relative viability ([1]; first compound 0.1 µM): 0.217
- relative viability ([1]; first compound 1 µM): 0.179
- relative viability ([1]; first compound 3.162 µM): 0.18
- relative viability ([2]; first compound 0.1 µM): 1.04
- relative viability ([2]; first compound 1 µM): 0.984
- relative viability ([2]; first compound 3.162 µM): 0.599
- relative viability ([3]; first compound 0.1 µM): 0.293
- relative viability ([3]; first compound 1 µM): 0.267
- relative viability ([3]; first compound 3.162 µM): 0.184
- relative viability ([4]; first compound 0.02 µM): 0.952
- relative viability ([4]; first compound 0.06325 µM): 1.09
- relative viability ([4]; first compound 0.2 µM): 0.985
- relative viability ([4]; first compound 0.6325 µM): 1.15
- relative viability ([4]; first compound 2 µM): 0.898
- relative viability ([5]; first compound 0.02 µM): 0.974
- relative viability ([5]; first compound 0.06325 µM): 1.04
- relative viability ([5]; first compound 0.2 µM): 1.06
- relative viability ([5]; first compound 0.6325 µM): 1.01
- relative viability ([5]; first compound 2 µM): 1.11
